Test results published in the supplement of paper PMC10307832.

Experiments:
Experiment in all cases: relative viability (nuclei count vs DMSO), 5 days (fraction); higher = more cells survive
4EGI-1 + Phenformin = compound: O=C(O)C(Cc1ccccc1[N+](=O)[O-])=NNc1nc(-c2ccc(Cl)c(Cl)c2)cs1 (mixture of isomers) [4EGI-1] + N=C(N)NC(=N)NCCc1ccccc1 [Phenformin] (partner 250 µM)
Summary of the method: (§1)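 After 5 days of treatment, lung cancer cells in 1536-well plates were fixed and stained in a single step (final 0.05% Triton X-100, 1% formaldehyde, 1 ug/ml Hoechst) and their nuclei counted on 4× images. Treatment had been applied by pin tool the day after seeding as one drug alone or as a fixed anchor-drug dose with five library-drug doses (not always all listed) in √10 steps. Relative viability is the nuclei count of treated wells divided by that of vehicle wells, and values are medians of duplicate plates.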

XMD8-85 + Pictilisib = compound: CN1CCN(CC1)C2=CC(=C(C=C2)NC3=NC=C4C(=N3)N(C5=CC=CC=C5C(=O)N4C)C)OC [XMD8-85] + CS(=O)(=O)N1CCN(Cc2cc3nc(-c4cccc5[nH]ncc45)nc(N4CCOCC4)c3s2)CC1 [Pictilisib] (partner 1 µM)
Summary of the method: as §1

XMD8-85 + Trametinib = compound: CN1CCN(CC1)C2=CC(=C(C=C2)NC3=NC=C4C(=N3)N(C5=CC=CC=C5C(=O)N4C)C)OC [XMD8-85] + CC(=O)Nc1cccc(-n2c(=O)n(C3CC3)c(=O)c3c(Nc4ccc(I)cc4F)n(C)c(=O)c(C)c32)c1 [Trametinib] (partner 0.02 µM)
Summary of the method: as §1

XMD8-85 + AZD7762 = compound: CN1CCN(CC1)C2=CC(=C(C=C2)NC3=NC=C4C(=N3)N(C5=CC=CC=C5C(=O)N4C)C)OC [XMD8-85] + NC(=O)Nc1cc(-c2cccc(F)c2)sc1C(=O)N[C@H]1CCCNC1 [AZD7762] (partner 0.2 µM)
Summary of the method: as §1

## NCI-H1650
4EGI-1 + Phenformin; first compound 0.5 µM
  relative viability: 0.456
4EGI-1 + Phenformin; first compound 5 µM
  relative viability: 0.401
4EGI-1 + Phenformin; first compound 15.81 µM
  relative viability: 0.284
4EGI-1 + Phenformin; first compound 50 µM
  relative viability: 0.206
XMD8-85 + Pictilisib; first compound 0.08 µM
  relative viability: 0.508
XMD8-85 + Pictilisib; first compound 0.253 µM
  relative viability: 0.501
XMD8-85 + Pictilisib; first compound 0.8 µM
  relative viability: 0.64
XMD8-85 + Pictilisib; first compound 2.53 µM
  relative viability: 0.539
XMD8-85 + Pictilisib; first compound 8 µM
  relative viability: 0.226
XMD8-85 + Trametinib; first compound 0.08 µM
  relative viability: 0.629
XMD8-85 + Trametinib; first compound 0.253 µM
  relative viability: 0.539
XMD8-85 + Trametinib; first compound 0.8 µM
  relative viability: 0.784
XMD8-85 + Trametinib; first compound 2.53 µM
  relative viability: 0.426
XMD8-85 + Trametinib; first compound 8 µM
  relative viability: 0.36

## NCI-H1703
XMD8-85 + AZD7762; first compound 0.08 µM
  relative viability: 0.107
XMD8-85 + AZD7762; first compound 0.253 µM
  relative viability: 0.147
XMD8-85 + AZD7762; first compound 0.8 µM
  relative viability: 0.133
XMD8-85 + AZD7762; first compound 2.53 µM
  relative viability: 0.119
XMD8-85 + AZD7762; first compound 8 µM
  relative viability: 0.107
XMD8-85 + Pictilisib; first compound 0.08 µM
  relative viability: 0.236
XMD8-85 + Pictilisib; first compound 0.253 µM
  relative viability: 0.234
XMD8-85 + Pictilisib; first compound 0.8 µM
  relative viability: 0.269
XMD8-85 + Pictilisib; first compound 2.53 µM
  relative viability: 0.229
XMD8-85 + Pictilisib; first compound 8 µM
  relative viability: 0.196

## NCI-H2009
4EGI-1 + Phenformin; first compound 0.5 µM
  relative viability: 0.55
4EGI-1 + Phenformin; first compound 1.581 µM
  relative viability: 0.494
4EGI-1 + Phenformin; first compound 5 µM
  relative viability: 0.528
4EGI-1 + Phenformin; first compound 15.81 µM
  relative viability: 0.366
4EGI-1 + Phenformin; first compound 50 µM
  relative viability: 0.18
XMD8-85 + Pictilisib; first compound 0.08 µM
  relative viability: 0.753
XMD8-85 + Pictilisib; first compound 0.253 µM
  relative viability: 0.722
XMD8-85 + Pictilisib; first compound 0.8 µM
  relative viability: 0.892
XMD8-85 + Pictilisib; first compound 2.53 µM
  relative viability: 0.653
XMD8-85 + Pictilisib; first compound 8 µM
  relative viability: 0.364
XMD8-85 + Trametinib; first compound 0.08 µM
  relative viability: 0.26
XMD8-85 + Trametinib; first compound 0.253 µM
  relative viability: 0.237
XMD8-85 + Trametinib; first compound 0.8 µM
  relative viability: 0.261
XMD8-85 + Trametinib; first compound 2.53 µM
  relative viability: 0.253
XMD8-85 + Trametinib; first compound 8 µM
  relative viability: 0.18

## NCI-H2023
4EGI-1 + Phenformin; first compound 0.5 µM
  relative viability: 0.503
4EGI-1 + Phenformin; first compound 5 µM
  relative viability: 0.425
4EGI-1 + Phenformin; first compound 15.81 µM
  relative viability: 0.281
4EGI-1 + Phenformin; first compound 50 µM
  relative viability: 0.117
XMD8-85 + Pictilisib; first compound 0.08 µM
  relative viability: 0.199
XMD8-85 + Pictilisib; first compound 0.253 µM
  relative viability: 0.274
XMD8-85 + Pictilisib; first compound 0.8 µM
  relative viability: 0.259
XMD8-85 + Pictilisib; first compound 2.53 µM
  relative viability: 0.265
XMD8-85 + Pictilisib; first compound 8 µM
  relative viability: 0.178
XMD8-85 + Trametinib; first compound 0.08 µM
  relative viability: 0.515
XMD8-85 + Trametinib; first compound 0.253 µM
  relative viability: 0.535
XMD8-85 + Trametinib; first compound 0.8 µM
  relative viability: 0.685
XMD8-85 + Trametinib; first compound 2.53 µM
  relative viability: 0.557
XMD8-85 + Trametinib; first compound 8 µM
  relative viability: 0.284

## NCI-H2228
4EGI-1 + Phenformin; first compound 0.5 µM
  relative viability: 0.314
4EGI-1 + Phenformin; first compound 1.581 µM
  relative viability: 0.313
4EGI-1 + Phenformin; first compound 5 µM
  relative viability: 0.379
4EGI-1 + Phenformin; first compound 15.81 µM
  relative viability: 0.298
4EGI-1 + Phenformin; first compound 50 µM
  relative viability: 0.141
XMD8-85 + Pictilisib; first compound 0.08 µM
  relative viability: 0.469
XMD8-85 + Pictilisib; first compound 0.253 µM
  relative viability: 0.353
XMD8-85 + Pictilisib; first compound 0.8 µM
  relative viability: 0.202
XMD8-85 + Pictilisib; first compound 2.53 µM
  relative viability: 0.363
XMD8-85 + Pictilisib; first compound 8 µM
  relative viability: 0.247
XMD8-85 + Trametinib; first compound 0.08 µM
  relative viability: 0.354
XMD8-85 + Trametinib; first compound 0.253 µM
  relative viability: 0.57
XMD8-85 + Trametinib; first compound 0.8 µM
  relative viability: 0.379
XMD8-85 + Trametinib; first compound 2.53 µM
  relative viability: 0.387
XMD8-85 + Trametinib; first compound 8 µM
  relative viability: 0.181

## NCI-H2342
XMD8-85 + AZD7762; first compound 0.08 µM
  relative viability: 0.509
XMD8-85 + AZD7762; first compound 0.253 µM
  relative viability: 0.478
XMD8-85 + AZD7762; first compound 0.8 µM
  relative viability: 0.552
XMD8-85 + AZD7762; first compound 2.53 µM
  relative viability: 0.511
XMD8-85 + AZD7762; first compound 8 µM
  relative viability: 0.488
4EGI-1 + Phenformin; first compound 0.5 µM
  relative viability: 0.582
4EGI-1 + Phenformin; first compound 1.581 µM
  relative viability: 0.588
4EGI-1 + Phenformin; first compound 5 µM
  relative viability: 0.716
4EGI-1 + Phenformin; first compound 15.81 µM
  relative viability: 0.641
4EGI-1 + Phenformin; first compound 50 µM
  relative viability: 0.522
XMD8-85 + Trametinib; first compound 0.08 µM
  relative viability: 0.747
XMD8-85 + Trametinib; first compound 0.253 µM
  relative viability: 0.807
XMD8-85 + Trametinib; first compound 0.8 µM
  relative viability: 0.859
XMD8-85 + Trametinib; first compound 2.53 µM
  relative viability: 0.922
XMD8-85 + Trametinib; first compound 8 µM
  relative viability: 0.991

## SK-LU-1
4EGI-1 + Phenformin; first compound 0.5 µM
  relative viability: 0.653
4EGI-1 + Phenformin; first compound 1.581 µM
  relative viability: 0.546
4EGI-1 + Phenformin; first compound 5 µM
  relative viability: 0.681
4EGI-1 + Phenformin; first compound 15.81 µM
  relative viability: 0.632
4EGI-1 + Phenformin; first compound 50 µM
  relative viability: 0.264
XMD8-85 + Pictilisib; first compound 0.08 µM
  relative viability: 0.397
XMD8-85 + Pictilisib; first compound 0.8 µM
  relative viability: 0.569
XMD8-85 + Pictilisib; first compound 2.53 µM
  relative viability: 0.6
XMD8-85 + Pictilisib; first compound 8 µM
  relative viability: 0.522
XMD8-85 + Trametinib; first compound 0.08 µM
  relative viability: 0.425
XMD8-85 + Trametinib; first compound 0.253 µM
  relative viability: 0.469
XMD8-85 + Trametinib; first compound 0.8 µM
  relative viability: 0.53
XMD8-85 + Trametinib; first compound 2.53 µM
  relative viability: 0.508
XMD8-85 + Trametinib; first compound 8 µM
  relative viability: 0.367

## SK-MES-1
4EGI-1 + Phenformin; first compound 0.5 µM
  relative viability: 0.687
4EGI-1 + Phenformin; first compound 1.581 µM
  relative viability: 0.614
4EGI-1 + Phenformin; first compound 5 µM
  relative viability: 0.725
4EGI-1 + Phenformin; first compound 15.81 µM
  relative viability: 0.618
4EGI-1 + Phenformin; first compound 50 µM
  relative viability: 0.381
XMD8-85 + Pictilisib; first compound 0.08 µM
  relative viability: 0.349
XMD8-85 + Pictilisib; first compound 0.253 µM
  relative viability: 0.371
XMD8-85 + Pictilisib; first compound 0.8 µM
  relative viability: 0.342
XMD8-85 + Pictilisib; first compound 2.53 µM
  relative viability: 0.383
XMD8-85 + Pictilisib; first compound 8 µM
  relative viability: 0.375
XMD8-85 + Trametinib; first compound 0.08 µM
  relative viability: 0.57
XMD8-85 + Trametinib; first compound 0.253 µM
  relative viability: 0.616
XMD8-85 + Trametinib; first compound 0.8 µM
  relative viability: 0.49
XMD8-85 + Trametinib; first compound 2.53 µM
  relative viability: 0.428
XMD8-85 + Trametinib; first compound 8 µM
  relative viability: 0.304

## SW 1573
4EGI-1 + Phenformin; first compound 0.5 µM
  relative viability: 0.457
4EGI-1 + Phenformin; first compound 1.581 µM
  relative viability: 0.388
4EGI-1 + Phenformin; first compound 5 µM
  relative viability: 0.403
4EGI-1 + Phenformin; first compound 15.81 µM
  relative viability: 0.276
4EGI-1 + Phenformin; first compound 50 µM
  relative viability: 0.114
XMD8-85 + Pictilisib; first compound 0.08 µM
  relative viability: 0.574
XMD8-85 + Pictilisib; first compound 0.253 µM
  relative viability: 0.523
XMD8-85 + Pictilisib; first compound 0.8 µM
  relative viability: 0.591
XMD8-85 + Pictilisib; first compound 2.53 µM
  relative viability: 0.487
XMD8-85 + Pictilisib; first compound 8 µM
  relative viability: 0.357
XMD8-85 + Trametinib; first compound 0.08 µM
  relative viability: 0.542
XMD8-85 + Trametinib; first compound 0.253 µM
  relative viability: 0.522
XMD8-85 + Trametinib; first compound 0.8 µM
  relative viability: 0.594
XMD8-85 + Trametinib; first compound 2.53 µM
  relative viability: 0.427
XMD8-85 + Trametinib; first compound 8 µM
  relative viability: 0.262

## UMC-11
4EGI-1 + Phenformin; first compound 0.5 µM
  relative viability: 0.384
4EGI-1 + Phenformin; first compound 1.581 µM
  relative viability: 0.365
4EGI-1 + Phenformin; first compound 5 µM
  relative viability: 0.334
4EGI-1 + Phenformin; first compound 15.81 µM
  relative viability: 0.28
4EGI-1 + Phenformin; first compound 50 µM
  relative viability: 0.237
XMD8-85 + Pictilisib; first compound 0.08 µM
  relative viability: 0.696
XMD8-85 + Pictilisib; first compound 0.253 µM
  relative viability: 0.757
XMD8-85 + Pictilisib; first compound 0.8 µM
  relative viability: 0.922
XMD8-85 + Pictilisib; first compound 2.53 µM
  relative viability: 0.796
XMD8-85 + Pictilisib; first compound 8 µM
  relative viability: 0.513
XMD8-85 + Trametinib; first compound 0.08 µM
  relative viability: 0.723
XMD8-85 + Trametinib; first compound 0.253 µM
  relative viability: 0.738
XMD8-85 + Trametinib; first compound 0.8 µM
  relative viability: 0.696
XMD8-85 + Trametinib; first compound 2.53 µM
  relative viability: 0.683
XMD8-85 + Trametinib; first compound 8 µM
  relative viability: 0.403
